Results on one molecule are retold here after patent publication US6767549B2, “Ionic polymers as anti-infective agents” (Genzyme Corporation, priority 1996, dated 2004).

Molecules are shown by their SMILES.

For this assay, the system named is C. parvum. In words: In vitro activity against C. parvum infectivity in MDBK cell monolayers (indirect immunofluorescence assay). The note with it: Cryptosporidium parvum, 2 mg/mL, positive control drug, 48 hours. It counts as cell-based. On the procedure:
Confluent MDBK cell monolayers were grown on 16 well slides, and infected with 5×10^5 of C. parvum oocysts per well. Various dilutions of the test reagents in dimethylsulfoxide (DMSO) were added to the monolayers and cultures were incubated at 37° C.(8% CO2) for 48 hours. The level of C. parvum infections was determined and analysed by an indirect immunofluorescence (IF) assay at 48 hours. Anti-C. parvum sporozoite rabbit serum (1:1000) was used as the primary antibody, and fluorscein-conjugated anti rabbit goat serum (1:100) was used as the secondary antibody. Each dilution was tested in quadruple, and each assay was performed at least two times. The monolayers were methanol fixed and, after IF labelling, the number of parasites observed in 10 high power fields (HPF) per well in each of the four wells per dilution was counted, statistically analysed and compared with infected wells which contained DMSO only. Paromomycin was used as the positive control drug.

In general, inhibition refers to the relative decrease from the control value, in per cent. Lower therefore signals a weak effect. In turn, `NC[C@@H]1O[C@H](O[C@H]2[C@@H](O)[C@H](O[C@@H]3[C@@H](O)[C@H](N)C[C@H](N)[C@H]3O[C@H]3O[C@H](CO)[C@@H](O)[C@H](O)[C@H]3N)O[C@@H]2CO)[C@H](N)[C@@H](O)[C@@H]1O` [paromomycin] returned an inhibition at 2000 µg/mL of 79.4%.
